In paper PMC12124388, “High-affinity PQQ import is widespread in Gram-negative bacteria” (Science Advances, 2025):

Columns and labels:
PqqU (formerly YncD) [1] = target: T1, PqqU (formerly YncD) (Escherichia coli, UniProt P76115); test: cryo-EM structure of complex, […] Å; format: binding; details: 43 μM PqqU with 910 μM PQQ; LMNG micelle; single PQQ in internal extracellular-side cavity, loops 7 and 8 closed; no metal bound to PQQ
T1 construct: 10xHis-tagged PqqU from pET-20b-pqqU, expressed in E. coli BL21 (DE3) C41, purified from membranes (DDM or LMNG), 76 kDa monomer; 700 residues in full, 39-699 modelled
T1 sequence (P76115 24-700): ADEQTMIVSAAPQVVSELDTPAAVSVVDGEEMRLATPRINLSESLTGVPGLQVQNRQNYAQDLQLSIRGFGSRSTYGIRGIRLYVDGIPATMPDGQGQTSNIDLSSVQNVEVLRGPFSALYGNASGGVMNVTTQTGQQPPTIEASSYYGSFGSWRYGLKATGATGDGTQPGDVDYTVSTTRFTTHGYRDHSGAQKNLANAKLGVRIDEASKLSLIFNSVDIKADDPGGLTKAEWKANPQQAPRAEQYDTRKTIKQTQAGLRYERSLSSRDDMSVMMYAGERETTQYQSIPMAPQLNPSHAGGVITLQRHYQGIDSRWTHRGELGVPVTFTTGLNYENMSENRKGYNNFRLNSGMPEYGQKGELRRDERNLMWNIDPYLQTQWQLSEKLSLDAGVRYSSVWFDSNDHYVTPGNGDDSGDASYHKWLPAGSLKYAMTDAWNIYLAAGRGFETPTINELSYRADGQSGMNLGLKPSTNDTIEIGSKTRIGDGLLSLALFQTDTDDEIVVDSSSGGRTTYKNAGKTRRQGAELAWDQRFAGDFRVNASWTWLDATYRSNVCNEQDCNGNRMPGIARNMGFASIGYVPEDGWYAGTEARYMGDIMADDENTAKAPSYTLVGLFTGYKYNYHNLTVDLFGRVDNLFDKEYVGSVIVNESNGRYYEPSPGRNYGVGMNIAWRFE

PqqU (formerly YncD) [2] = target: T1, PqqU (formerly YncD); test: isothermal titration calorimetry; format: binding; details: 50 mM tris-HCl pH 7.4, 150 mM NaCl; LMNG-purified, excess detergent removed; PQQ as disodium salt, oxidized; curve not accurately fitted, Kd only stated as low to subnanomolar range

With `O=C(O)c1cc(C(=O)O)c2c(n1)C(=O)C(=O)c1cc(C(=O)O)[nH]c1-2` [PQQ] the “cryo-EM structure of complex, 1.99 Å” value (PqqU (formerly YncD) [1]) was “we used cryo-EM to resolve the structure of the PqqU-PQQ complex” and the Kd (PqqU (formerly YncD) [2]) was “likely with a Kd in the low to subnanomolar range”.
